Source: the NIST ThermoML archive (doi:10.1016/j.jct.2015.12.025)

Test: xn = mol fraction of the nth substance listed
Conditions: 102 kPa, Liquid, Vibrating tube method

CC(C)(C)c1ccccc1 [(1,1-dimethylethyl)benzene] + C[Si]1(CCC(F)(F)F)O[Si](C)(CCC(F)(F)F)O[Si](C)(CCC(F)(F)F)O1
mass density [kg/m3]
Conditions | 308.15 K | 313.15 K | 318.15 K | 323.15 K
x2 = 0 | 854.12 | 849.98 | 845.87 | 841.72
x2 = 0.0476 | 894.32 | 889.93 | 885.61 | 881.21
x2 = 0.1 | 933.32 | 928.72 | 924.21 | 919.56
x2 = 0.15 | 966.19 | 961.47 | 956.76 | 951.94
x2 = 0.2 | 995.76 | 990.72 | 985.86 | 980.83
x2 = 0.25 | 1022.23 | 1017.01 | 1012 | 1006.81
x2 = 0.2999 | 1046.09 | 1040.82 | 1035.68 | 1030.38
x2 = 0.3499 | 1067.85 | 1062.39 | 1057.13 | 1051.7
x2 = 0.3999 | 1087.64 | 1082.11 | 1076.69 | 1071.16
x2 = 0.45 | 1105.84 | 1100.2 | 1094.66 | 1089.02
x2 = 0.5 | 1122.55 | 1116.79 | 1111.16 | 1105.4
x2 = 0.5498 | 1137.88 | 1132.05 | 1126.36 | 1120.47
x2 = 0.6 | 1152.22 | 1146.28 | 1140.41 | 1134.47
x2 = 0.6499 | 1165.5 | 1159.37 | 1153.46 | 1147.45
x2 = 0.7001 | 1177.76 | 1171.65 | 1165.58 | 1159.5
x2 = 0.75 | 1189.19 | 1183.03 | 1176.83 | 1170.74
x2 = 0.7995 | 1199.87 | 1193.61 | 1187.3 | 1181.13
x2 = 0.8499 | 1209.99 | 1203.62 | 1197.27 | 1190.93
x2 = 0.8954 | 1218.66 | 1212.17 | 1205.76 | 1199.34
x2 = 0.9485 | 1228.1 | 1221.55 | 1215.06 | 1208.56
